Source: US12018059B2, “Human amylin analog polypeptides and methods of use” (Intarcia Therapeutics, Inc., priority 2018, dated 2024)
Starred links: 1 amine or outer side, 2 acyl side, 3 side chain; linkers in the order of their positions; H or OH if unused. Positions of bridges follow the written chain, without caps; N, C: chain ends. Non-standard residues stand in square brackets, D forms with d. Residues, ends and D or L forms follow the SMILES beside them. Groups on a side chain read outwards from the residue. *: point of attachment. X4 = CCCCCCCCCCCCCCCC(=O)N[C@@H](CCC(=O)NCOCCOCC(=O)NCOCCOCC(=O)*)C(=O)O; γGlu = O=C(O)[C@H](CCC(=O)[*:2])N[*:1]; Stearoyl = CCCCCCCCCCCCCCCCCC(=O)*; Palmitoyl = CCCCCCCCCCCCCCCC(=O)*

Test: in vivo
Parameters: species or system Sprague-Dawley rats
Conditions: rat, iv, 0.033 mg/kg
Method: Peptides were dissolved in sterile saline and administered as a 1-hour intravenous infusion to non-fasted male Sprague-Dawley rats (n=3 per group) via femoral vein cannula at a final dose of 0.033 mg/kg. […] Blood samples (approximately 250 μL) were collected for pharmacokinetic analysis via a jugular vein cannula at 0.25, 0.5, 0.75, 1, 1.17, 1.33, 1.5, 2, 4, 6, 8, 24, 30 and 48 hr post-start of infusion into microtainer tubes containing K2EDTA as anticoagulant and 25 μL of a protease inhibitor cocktail. Plasma was prepared by centrifugation and stored at −80° C. until analysis. The results of this analysis are shown in Table 9 and few exemplars in FIGS. 3a-3b. […]
A 60 μL aliquot of each plasma sample was placed into to a 96-well plate. To each well was added 6 μL of 0.5% Tween-20. Plates were then vortexed mixed for 10 minutes at 1200 rpm before 180 μL of 0.1% TFA in 2:1 ethanol:acetonitrile containing an appropriate internal standard was added to each well. Plates were vortex mixed for 5 min at 1300 rpm, and then centrifuged for 10 min at 2844×g. Supernatants (180 μL) were placed into a clean 96-well plate and evaporated under a nitrogen stream at 45° C. Residues were reconstituted in 80 μL of 20% acetonitrile (aq) containing 0.1% formic acid.
A […] aliquot of each plasma sample was diluted with […] of 10 mM ammonium acetate (pH 6.8) containing an appropriate internal standard and loaded onto an Oasis WCX microElution plate (Waters Corporation, Milford, MA) that had been pre-conditioned with […] of methanol and […] of deionized water. Samples were washed with […] of 5% ammonium hydroxide (aq) followed by […] of 20% acetonitrile in water. The analyte was eluted with […] of 5% formic acid in 75:25 acetonitrile:water. The eluent was dried under a nitrogen stream. Residues were reconstituted in 80 μL of 20% acetonitrile (aq) containing 0.1% formic acid.
All calibration standards were prepared in control rat plasma containing K2EDTA and protease inhibitor cocktail.
Samples and standards were analyzed by TurbolonSpray™ UPLC-MS/MS using a system consisting of a CTC HTS PAL auto-injector (Leap, Carrboro, NC), an Agilent Infinity 1290 system with column oven (Palo Alto, CA), a Valco switching valve (Houston, TX), and either an AB Sciex API 5600 TripleTOF™ or Sciex API 4000QTrap mass spectrometer (Framingham, MA). Samples were injected onto a 2.1×50 mm reverse phase C18 analytical column, typically a Waters CORTECS UPLC C18+, 1.6 μm (Waters Corporation, Milford, MA) or similar. […] Initial conditions consisted of 90% A and 10% B. The organic component was increased to 95% B over a period of 3-4 minutes, depending on the peptide. Typical flow rates were 600 μL/min. The column temperature was held constant at 40 or 50° C. Peptides were quantified by monitoring one or more product ions produced from a multiply charged parent ion.

| SMILES | Vd [L/kg] | clearance [mL/min/kg] | half-life [h] |
| --- | --- | --- | --- |
| CCCCCCCCCCCCCCCC(=O)NCC(=O)N[C@@H](CCC(=O)N[C@@H](CCC(=O)NCCCC[C@@H](NC(=O)[C@H](CCC(=O)O)NC(=O)[C@H](CC(N)=O)NC(=O)[C@H](C)NC(=O)[C@H](CC(C)C)NC(=O)[C@H](CCCNC(=N)N)NC(=O)[C@H](CCC(N)=O)NC(=O)[C@@H](NC(=O)[C@H](C)NC(=O)[C@@H]1CSSC[C@H](NC(=O)[C@@H](N)CO)C(=O)N[C@@H](CC(N)=O)C(=O)N[C@@H]([C@@H](C)O)C(=O)N[C@@H](CO)C(=O)N[C@@H]([C@@H](C)O)C(=O)N1)[C@@H](C)O)C(=O)N[C@@H](Cc1c[nH]cn1)C(=O)N[C@@H](CCCCN)C(=O)N[C@@H](CO)C(=O)N[C@@H](CO)C(=O)N[C@@H](CC(N)=O)C(=O)N[C@@H](CC(N)=O)C(=O)N[C@@H](Cc1ccccc1)C(=O)NCC(=O)N1CCC[C@H]1C(=O)N[C@H](C(=O)N[C@@H](CC(C)C)C(=O)N1CCC[C@H]1C(=O)N1CCC[C@H]1C(=O)N[C@H](C(=O)N[C@@H](CCCCN)C(=O)N[C@H](C(=O)NCC(=O)N[C@@H](CO)C(=O)N[C@@H](CCC(=O)O)C(=O)N[C@H](C(=O)N[C@@H](Cc1ccc(O)cc1)C(N)=O)[C@@H](C)O)C(C)C)[C@@H](C)O)[C@@H](C)CC)C(=O)O)C(=O)O [Compound A39] (H-SCNTSTCATQRLANE[dK]([γGlu-γGlu-Gly-Palmitoyl])HKSSNNFGPILPPTKVGSETY-NH2; disulfide 2-7) | 0.502 | 1.35 | 4.85 |
| CCCCCCCCCCCCCCCC(=O)N[C@@H](CCC(=O)NCCCC[C@H](NC(=O)[C@H](CC(N)=O)NC(=O)[C@H](C)NC(=O)[C@H](CC(C)C)NC(=O)[C@H](CCCNC(=N)N)NC(=O)[C@H](CCC(N)=O)NC(=O)[C@@H](NC(=O)[C@H](C)NC(=O)[C@@H]1CSSC[C@H](NC(=O)[C@@H](N)CO)C(=O)N[C@@H](CC(N)=O)C(=O)N[C@@H]([C@@H](C)O)C(=O)N[C@@H](CO)C(=O)N[C@@H]([C@@H](C)O)C(=O)N1)[C@@H](C)O)C(=O)N[C@@H](CC(C)C)C(=O)N[C@@H](Cc1c[nH]cn1)C(=O)N[C@@H](CCCCN)C(=O)N[C@@H](CO)C(=O)N[C@@H](CO)C(=O)N[C@@H](CC(N)=O)C(=O)N[C@@H](CC(N)=O)C(=O)N[C@@H](Cc1ccccc1)C(=O)NCC(=O)N1CCC[C@H]1C(=O)N[C@H](C(=O)N[C@@H](CC(C)C)C(=O)N1CCC[C@H]1C(=O)N1CCC[C@H]1C(=O)N[C@H](C(=O)N[C@@H](CCCCN)C(=O)N[C@H](C(=O)NCC(=O)N[C@@H](CO)C(=O)N[C@@H](CCC(=O)O)C(=O)N[C@H](C(=O)N[C@@H](Cc1ccc(O)cc1)C(N)=O)[C@@H](C)O)C(C)C)[C@@H](C)O)[C@@H](C)CC)C(=O)O [Compound A42] (H-SCNTSTCATQRLANK([γGlu-Palmitoyl])LHKSSNNFGPILPPTKVGSETY-NH2; disulfide 2-7) | 0.552 | 23.7 | 0.391 |
| CCCCCCCCCCCCCCCC(=O)N[C@@H](CCC(=O)N[C@@H](CCC(=O)N[C@@H](CCC(=O)NCCCC[C@@H](NC(=O)[C@H](CCC(=O)O)NC(=O)[C@H](CC(N)=O)NC(=O)[C@H](C)NC(=O)[C@H](CC(C)C)NC(=O)[C@H](CCCNC(=N)N)NC(=O)[C@H](CCC(N)=O)NC(=O)[C@@H](NC(=O)[C@H](C)NC(=O)[C@@H]1CSSC[C@H](NC(=O)[C@@H](N)CO)C(=O)N[C@@H](CC(N)=O)C(=O)N[C@@H]([C@@H](C)O)C(=O)N[C@@H](CO)C(=O)N[C@@H]([C@@H](C)O)C(=O)N1)[C@@H](C)O)C(=O)N[C@@H](Cc1c[nH]cn1)C(=O)N[C@@H](CCCCN)C(=O)N[C@@H](CO)C(=O)N[C@@H](CO)C(=O)N[C@@H](CC(N)=O)C(=O)N[C@@H](CC(N)=O)C(=O)N[C@@H](Cc1ccccc1)C(=O)NCC(=O)N1CCC[C@H]1C(=O)N[C@H](C(=O)N[C@@H](CC(C)C)C(=O)N1CCC[C@H]1C(=O)N1CCC[C@H]1C(=O)N[C@H](C(=O)N[C@@H](CCCCN)C(=O)N[C@H](C(=O)NCC(=O)N[C@@H](CO)C(=O)N[C@@H](CCC(=O)O)C(=O)N[C@H](C(=O)N[C@@H](Cc1ccc(O)cc1)C(N)=O)[C@@H](C)O)C(C)C)[C@@H](C)O)[C@@H](C)CC)C(=O)O)C(=O)O)C(=O)O [Compound A53] (H-SCNTSTCATQRLANE[dK]([γGlu-γGlu-γGlu-Palmitoyl])HKSSNNFGPILPPTKVGSETY-NH2; disulfide 2-7) | 0.174 | 0.478 | 5.16 |
| CCCCCCCCCCCCCCCCCC(=O)N[C@@H](CCC(=O)N[C@@H](CCC(=O)NCCCC[C@@H](NC(=O)[C@H](CCC(=O)O)NC(=O)[C@H](CC(N)=O)NC(=O)[C@H](C)NC(=O)[C@H](CC(C)C)NC(=O)[C@H](CCCNC(=N)N)NC(=O)[C@H](CCC(N)=O)NC(=O)[C@@H](NC(=O)[C@H](C)NC(=O)[C@@H]1CSSC[C@H](NC(=O)[C@@H](N)CO)C(=O)N[C@@H](CC(N)=O)C(=O)N[C@@H]([C@@H](C)O)C(=O)N[C@@H](CO)C(=O)N[C@@H]([C@@H](C)O)C(=O)N1)[C@@H](C)O)C(=O)N[C@@H](Cc1c[nH]cn1)C(=O)N[C@@H](CCCCN)C(=O)N[C@@H](CO)C(=O)N[C@@H](CO)C(=O)N[C@@H](CC(N)=O)C(=O)N[C@@H](CC(N)=O)C(=O)N[C@@H](Cc1ccccc1)C(=O)NCC(=O)N1CCC[C@H]1C(=O)N[C@H](C(=O)N[C@@H](CC(C)C)C(=O)N1CCC[C@H]1C(=O)N1CCC[C@H]1C(=O)N[C@H](C(=O)N[C@@H](CCCCN)C(=O)N[C@H](C(=O)NCC(=O)N[C@@H](CO)C(=O)N[C@@H](CCC(=O)O)C(=O)N[C@H](C(=O)N[C@@H](Cc1ccc(O)cc1)C(N)=O)[C@@H](C)O)C(C)C)[C@@H](C)O)[C@@H](C)CC)C(=O)O)C(=O)O [Compound A56] (H-SCNTSTCATQRLANE[dK]([γGlu-γGlu-Stearoyl])HKSSNNFGPILPPTKVGSETY-NH2; disulfide 2-7) | 0.469 | 1.34 | 4.29 |
| CCCCCCCCCCCCCCCC(=O)N[C@@H](CCC(=O)NCOCCOCC(=O)NCOCCOCC(=O)N[C@@H](CCC(=O)NCCCC[C@H](NC(=O)[C@H](CCC(=O)O)NC(=O)[C@H](CC(N)=O)NC(=O)[C@H](C)NC(=O)[C@H](CC(C)C)NC(=O)[C@H](CCCNC(=N)N)NC(=O)[C@H](CCC(N)=O)NC(=O)[C@@H](NC(=O)[C@H](C)NC(=O)[C@@H]1CSSC[C@H](NC(=O)[C@@H](N)CO)C(=O)N[C@@H](CC(N)=O)C(=O)N[C@@H]([C@@H](C)O)C(=O)N[C@@H](CO)C(=O)N[C@@H]([C@@H](C)O)C(=O)N1)[C@@H](C)O)C(=O)N[C@@H](Cc1c[nH]cn1)C(=O)N[C@@H](CCCCN)C(=O)N[C@@H](CO)C(=O)N[C@@H](CO)C(=O)N[C@@H](CC(N)=O)C(=O)N[C@@H](CC(N)=O)C(=O)N[C@@H](Cc1ccccc1)C(=O)NCC(=O)N1CCC[C@H]1C(=O)N[C@H](C(=O)N[C@@H](CC(C)C)C(=O)N1CCC[C@H]1C(=O)N1CCC[C@H]1C(=O)N[C@H](C(=O)N[C@@H](CCCCN)C(=O)N[C@H](C(=O)NCC(=O)N[C@@H](CO)C(=O)N[C@@H](CCC(=O)O)C(=O)N[C@H](C(=O)N[C@@H](Cc1ccc(O)cc1)C(N)=O)[C@@H](C)O)C(C)C)[C@@H](C)O)[C@@H](C)CC)C(=O)O)C(=O)O [Compound A63] (H-SCNTSTCATQRLANEK([γGlu-X4])HKSSNNFGPILPPTKVGSETY-NH2; disulfide 2-7; N-terminus assumed) | 0.54 | 2.66 | 2.81 |
